This data set is described as follows: Human HepG2 cell viability assay in 384 well format. Type of data set: toxicity, cell-based. Details: dose 125 nL, time 70.5 hour; concentration not given beside the values. The settings on record: HepG2 cells, read-out: Inhibition.
As to `COc1cc(C(=O)N2CCCC2CC(=O)c2cnn(C)c2)ccc1F` (stereo not drawn), the cytotoxicity at 70.5 h turned out to be 8.93%.
With `CCCc1n[nH]c(C2CN(Cc3ncc[nH]3)CCO2)n1` (stereo not drawn), the cytotoxicity at 70.5 h came to 4.94%.
Next, `N#Cc1cn(CCCN2CCc3ccccc32)c(=O)[nH]c1=O`: 21.5%; `O=C(Cn1cc(Cl)cn1)Nc1ccc2c(c1)OCO2`: -2%.
Next, `O=C(NC1CC1)C1CCCN(c2cccc(C(F)(F)F)n2)C1` (stereo not drawn): -5.01%; `CC(C(=O)N1CCN(C(=O)c2ccc(F)cc2F)CC1)n1ccnc1` (stereo not drawn): -4.77%.
As to `O=C(CN1CCS(=O)(=O)CC1)NC1CCCCc2ccccc21` (stereo not drawn), the cytotoxicity at 70.5 h is -1.09%.
Next, `CCc1cc(=O)[nH]c(-c2ccc(NCCc3ccc(O)cc3)nc2)n1`: -3.24%.
To `Cn1c(C2CC2)nc2cc(NC(=O)C3(O)CCCC3)ccc21` belongs -4.26%.
Next, `Cc1c(NCc2ccc(C#N)cc2)cccc1S(=O)(=O)NC1CC1`: 1.12%; `Cc1c(NCc2cccc(C#N)c2)cccc1S(=O)(=O)NC1CC1`: 4.95%.
For `CC(CS(C)(=O)=O)N(C(=O)CCc1ccsc1)C1CC1` (stereo not drawn), the cytotoxicity at 70.5 h was -4.58%.
Next, `C1CCC(CSc2nnnn2C2CC2)OC1` (stereo not drawn): -0.703%; `Cc1ccc(C(=O)N2CCN(C(=O)C(C)n3ccnc3)CC2)cc1F` (stereo not drawn): -5.92%.
Turning to `CN(C(=O)CCC(F)(F)F)c1cccc2ncccc12`, the cytotoxicity at 70.5 h turned out to be 42.6%.
For the compound `Cc1ccc(C(=O)NCc2ccc(N(C)C)cc2)cn1`, the cytotoxicity at 70.5 h is -10.4%.
Next, `Cc1ccccc1CS(=O)(=O)Cc1nc(C2CC2)no1`: -3.39%; `O=C(Cc1ccc2c(c1)CCO2)Nc1cccnc1-n1cncn1`: 16.3%; `COc1ccc(N(C)C(=O)c2ccc(Cl)c(S(C)(=O)=O)c2)cn1`: -2.77%.
Next, `O=C(NCCN1CCOCC1)c1ccc(OCc2ccccc2)nc1`: -1.05%.
To `Cc1cccc(NC(=O)CN(C)C(=O)c2ccc(OC(C)C)nc2)n1` belongs -2.88%; to `O=C(Nc1ccc(Cl)cn1)C1CCCN(Cc2ccccn2)C1` (stereo not drawn), -1.12%.
As for `CCc1noc(CS(=O)(=O)Cc2ccccc2C)n1`, the cytotoxicity at 70.5 h worked out at 15%.
To `CCc1noc(CS(=O)(=O)Cc2nc(Cc3ccccc3)no2)n1` belongs -5.38%; to `Cc1ccc(C(=O)N(C)CC(=O)Nc2cccc(C)n2)cn1`, -6.04%.
To `Cc1nn(C)c(C)c1NC(=O)CN1CCCC1c1noc(C(C)C)n1` (stereo not drawn) belongs -5%; to `CCOc1ccc(NC(C)C(=O)NCCc2cccs2)cc1CO` (stereo not drawn), -3.5%.
To `COc1c(C2CCCN2C(=O)c2ccoc2C)c(C)nn1C` (stereo not drawn) belongs 7.26%; to `CC(NC(=O)CCCOc1cccc(F)c1)c1ccncc1` (stereo not drawn), -4.8%.
On to `CCn1ccnc1CN1CCN(Cc2cnc(C)cn2)CC1C` (stereo not drawn), for which the cytotoxicity at 70.5 h was found to be 4.47%.
To `O=C(NCCCOCc1ccco1)c1cccnc1N1CCOCC1` belongs 6.19%.
Next, `CCn1ccnc1CN1CCN(CCCS(C)(=O)=O)CC1C` (stereo not drawn): 12.1%.
Next, `Cc1cc(C)n(CC2CN(Cc3cccc(C#N)c3)CCO2)n1` (stereo not drawn): -3.79%; `NC(=O)c1ccc(CN2CCCC(N3CCCCCC3)C2)cc1` (stereo not drawn): 1.67%; `CCOc1ncccc1C(=O)N1CCCC(n2nc(C)cc2C)C1` (stereo not drawn): -5.39%.
As for `Cc1cnn(CC2CCCN2C(=O)Cn2nc(C)c(Cl)c2C)c1` (stereo not drawn), the cytotoxicity at 70.5 h is -1.94%.
To `Cc1cc(C)cc(NC(=O)CC2CN(Cc3ccccc3)CCO2)c1` (stereo not drawn) belongs -4.17%; to `Cc1nc(C)n(C2CCCN(C(=O)CCn3ccnn3)C2)n1` (stereo not drawn), 0.306%; to `CCC1(CNC(=O)NC(c2nnc3n2CCC3)C(C)C)CCC1` (stereo not drawn), 35.2%.
For the compound `CNC(=O)N1CCCCC1c1nnc2n1CCCC2` (stereo not drawn), the cytotoxicity at 70.5 h is -0.585%.
Next, `O=C(CC1CN(Cc2ccccc2)CCO1)Nc1ccsc1` (stereo not drawn): 8.64%.
To `Cc1n[nH]c(C)c1CNC(=O)N1CCCC(Cc2nccn2C)C1` (stereo not drawn) belongs 0.74%; to `CN(C)CC1CN(c2ncnc3ccsc23)CCO1` (stereo not drawn), 8.47%.
Next, `CNc1cc(N2CCCC2CNCc2cccc(C#N)c2)ncn1` (stereo not drawn): 1.28%; `Cc1ncsc1CNc1cccc(OCCN2CCCC2)c1`: 1.28%; `Cc1ccc(C2CN(C(=O)c3c(C)cc(C)[nH]c3=O)CCO2)c(C)c1` (stereo not drawn): 9.82%.
For `O=C(NCCSCc1ccc(Br)s1)C1CCCN(c2cnccn2)C1` (stereo not drawn), the cytotoxicity at 70.5 h turned out to be 10.7%.
Consider `CCCc1nc(C)c(C(=O)NC2CCN(CC(N)=O)CC2)s1`, for which the cytotoxicity at 70.5 h was -11.5%.
Next, `CC(NCc1ccccn1)c1cc2c(cc1Br)OCCO2` (stereo not drawn): -4.31%.
Next, `O=C(NS(=O)(=O)Cc1ccc(F)cc1)C1CCc2ccccc21` (stereo not drawn): 3.78%; `CCc1ncc2c(n1)CN(Cc1nc3c(F)cccc3[nH]1)CC2`: -5.3%; `COc1cc(CNCCNC(=O)c2ccc(O)cc2)ccc1SC`: 55.5%.
Next, `O=C(NCCc1ccccc1Cl)NCC1(O)CCSC1` (stereo not drawn): 3.74%; `O=C(NCc1ccc(Cl)cc1Cl)NCC1(O)CCSC1` (stereo not drawn): 18.5%.
With `CC(C)c1nnc(CNc2ccc(SC(F)(F)F)cc2)o1`, the cytotoxicity at 70.5 h amounted to 36.9%.
Next, `COc1ccnc(NC(=O)c2cnccn2)c1`: -7.62%.
For `O=C(c1ccc(=O)[nH]n1)N1CCc2ccccc21`, the cytotoxicity at 70.5 h is -0.117%.
In the case of `CCCc1noc(CN(C)Cc2ccc3c(c2)OCO3)n1`, the cytotoxicity at 70.5 h was 17.8%.
Next, `COc1c(C(=O)N2CCOC(c3cccs3)C2)c(C)nn1C` (stereo not drawn): -5.91%; `c1cc(NCc2cscn2)cc(OCCN2CCCCC2)c1`: -2.11%; `Cc1csc(CNc2cccc(OCCN3CCCC3)c2)n1`: 19.9%.
Next, `CC(NCc1cccc2c1OCCO2)c1cc2c(cc1Br)OCCO2` (stereo not drawn): -7.55%.
Next, `CCN(C(c1cccnc1)c1ccc(F)cc1F)S(C)(=O)=O` (stereo not drawn): -12.1%.
Take `CCN(Cc1nc2c(cnn2C)c(=O)[nH]1)c1cccc(C)c1C`: the cytotoxicity at 70.5 h was -0.49%.
Next, `CN(CCc1ccncc1)C(=O)C1CSCN1C(=O)CC(C)(C)C` (stereo not drawn): -12.5%; `CCc1nnc2n1CCN(Cc1noc(-c3cccc(C)c3)n1)C2`: -2.11%.
Regarding `CCc1cnccc1C(=O)NC1CCN(C(=O)C2CCCCC2)CC1`, the cytotoxicity at 70.5 h is -8.95%.
Next, `CC(O)CN1CCC(CN(C)CCC(=O)NC2CCCC2)CC1` (stereo not drawn): -1.49%; `CC(c1nnc(-c2cccs2)o1)N1CCc2cncnc2C1` (stereo not drawn): -1.71%; `CC(C)=CCN1CCN(C(=O)C2CCS(=O)(=O)C2)CC1` (stereo not drawn): 0.157%.
To `O=C1COc2cc(C(=O)NCc3ccc(Cl)s3)ccc2N1` belongs -2.5%; to `CS(=O)(=O)NC1CCCN(C(=O)Nc2ccccc2Cn2cccn2)C1` (stereo not drawn), 14.4%; to `CCc1ccc(CN(C(=O)CCn2cc(S(N)(=O)=O)cn2)C2CC2)cc1`, -2.81%.
To `NS(=O)(=O)c1cnn(CCC(=O)N(Cc2ccccc2)C2CC2)c1` belongs -7.26%; to `Cc1nn(C)c(N(C)C)c1CNC1CCCCNC1=O` (stereo not drawn), -4.25%.
`O=c1oc2ccccc2n1CCCN1CCCC1c1ccc(O)cc1` (stereo not drawn): the cytotoxicity at 70.5 h was -1.72%.
To `CC(C)(C(N)=O)S(=O)(=O)c1ccc(Br)cc1` belongs -6.61%; to `NS(=O)(=O)c1cnn(CCC(=O)N(C2CCCCC2)C2CC2)c1`, -3.97%.
To `Cc1ccc(N2CCCN(C(=O)c3n[nH]c4c3CCC4)CC2)nn1` belongs 1.32%; to `O=C(Nc1ccccc1Cn1cccn1)N1CCC(N2CCCC2)C1` (stereo not drawn), -2.57%.
On to `CCOc1ccc(S(=O)(=O)C(C)C(=O)Nc2cc(C)no2)cc1` (stereo not drawn), for which the cytotoxicity at 70.5 h was -4.64%.
Turning to `Cc1cc(CNC2(c3ccccc3)CCCCC2)on1`, the cytotoxicity at 70.5 h was -0.993%.
Next, `Cc1nc(O)ccc1C(=O)NCc1ncoc1C`: -2.74%; `Cc1[nH]ccc1C(=O)NCc1ncoc1C`: -2.23%; `CN(C)c1cccc(CNCc2ccc(N3CCOCC3)cc2)c1`: 14%.
To `CC(O)CN1CCC(CN(C)CC(=O)NC2CCOCC2)CC1` (stereo not drawn) belongs -2.54%; to `O=C(Nc1cccc(Cn2cccn2)c1)N1CCCC(N2CCCC2)C1` (stereo not drawn), -4.22%.
To `Cn1cc(C2CCCN2CCCn2c(=O)oc3ccccc32)cn1` (stereo not drawn) belongs 12.6%; to `CN(Cc1cccs1)c1cc(N2CCCC2CO)ncn1` (stereo not drawn), -1.74%.
In the case of `CCN(CC)S(=O)(=O)CCNc1nnc(C(C)C)s1`, the cytotoxicity at 70.5 h came out at 6.99%.
Next, `CC(C)CCNc1nnc(C(C)C)s1`: -3.84%; `O=S(=O)(NCCSc1nncn1C1CC1)c1ccccc1`: 30.9%.
Next, `CC(C)(C)CCN1CCN(c2snc(Cl)c2C#N)CC1`: 4.63%; `Cc1cnn(CC(C)NCc2c(C)nn(Cc3ccccc3)c2C)c1` (stereo not drawn): -4.31%; `CN(C)C(=O)Cc1ccccc1NCc1cc(C#N)ccc1F`: -2.64%.
To `CC(C)c1nc(/C=C/c2cnn(-c3ccc(Cl)cc3)c2)ncc1C(=O)O` belongs 22.7%.
Consider `Cc1[nH]ccc1C(=O)N1CCCN1C(=O)OC(C)(C)C`, for which the cytotoxicity at 70.5 h is 0.542%.
Next, `CC(C)(NC(=O)Cc1ccccc1F)C(C)(C)C(=O)O`: -0.854%; `O=C(CCn1nnc2ccccc2c1=O)N(CC1CCOC1)C1CC1` (stereo not drawn): 1.53%; `CCn1nc(C)c(CNCCn2cc(C)cn2)c1C`: -4.46%.
As for `CCC(CC)n1ncc(C(=O)NS(=O)(=O)c2ccsc2)c1C`, the cytotoxicity at 70.5 h amounted to 21.2%.
Next, `CCCN1CCC(N2CCN(c3cc(C)nc(COC)n3)CC2)CC1`: 3.64%; `Cc1cc(CN(CCO)c2ccc(Br)cc2)on1`: -0.419%.

The values above are taken from ChEMBL document CHEMBL3507680, “University of Dundee, Gates Library screen for HepG2 cell viability”.
